According to publication PMC4148842 (The Journal of Biological Chemistry, 2014):
“Also recorded” adds a separate entry of the source.

Experiments:
MMP-13 [1] = biological target: T1, MMP-13 (Homo sapiens, UniProt P45452); assay: MMP-13 Toolkit SPBA, pro and active forms, wild type and E204A taken together; format: binding; conditions: for binding of MMP-13 preparations: all or several MMP-13 preparations, SPBA
Excerpt: (§1) Recombinant proMMP-13 was expressed and purified as previously described ([18]). […] ProMMP-13(E204A) was expressed in Escherichia coli BL21(DE3), refolded, purified, and activated essentially as described for proMMP-1(E200A) ([19], [20]).
(§2) Unless stated otherwise, all peptides were triple-helical, a structure maintained by the flanking sequences, GPC(GPP)5- and -(GPP)5-GPC-amide, at their N and C terminus, respectively. For simplicity, peptides are referred to by their specific guest sequence. A negative control peptide, (GPC-(GPP)10-GPC-amide) is referred to as GPP10.
(§3) Immulon 2 HB 96-well plates (Nunc, Langenselbold, Germany) were coated with Collagen Toolkit or other peptides, fibrillar or monomeric collagen at a saturating concentration (10 μg/ml in 0.01 M acetic acid) overnight at 4 °C. Fibrous bovine type I collagen was a gift from Ethicon Corporation (Somerville, NJ). Monomeric collagen was obtained from Devro (Bathurst, Australia). All further incubations were performed at 24 °C for 1 h unless otherwise stated. The wells were washed three times with adhesion buffer (1 mg/ml BSA in Tris-buffered saline (TBS) containing 0.1% (v/v) Tween-20) between each incubation step. The wells were blocked with 50 mg/ml BSA in TBS prior to the addition of MMP at a concentration of 83 nM (unless otherwise stated) in adhesion buffer. […] Rabbit HRP-linked anti-GST (GE Healthcare; dilution 1:10,000) was used to detect GST-Hpx. […] Binding curves were fitted using Prism 5.0 software (GraphPad, San Diego), allowing total binding (Bmax) and equilibrium dissociation constant (KD) to be determined.

MMP-13 [2] = biological target: T1, MMP-13; assay: MMP-13 Toolkit solid-phase binding assay (SPBA), wild type active MMP-13; set-up: made in house; host or cells: mouse myeloma cells; conditions: 1 h, 24 °C; for binding: wild type active MMP-13, 83 nM, coating 10 μg/ml
Excerpt: as §1, §2
as §3, with “Monomeric collagen was obtained from Devro (Bathurst, Australia).” left out, “step.” for “step. The wells were blocked with 50 mg/ml BSA in TBS prior to the addition of MMP at a concentration of 83 nM (unless otherwise stated) in adhesion buffer.”
FIGURE 1. […] For reference, collagen D-periods corresponding to these peptides are shown as gray bars below, and the collagenase cleavage site indicated by an arrow.

MMP-13(E204A) = biological target: T2, MMP-13(E204A) (Homo sapiens, UniProt P45452, E223A); assay: MMP-13 Toolkit SPBA, active-site mutant MMP-13(E204A); format: binding; conditions: 83 nM, coating 10 μg/ml, 1 h, 24 °C
T2 construct: made in house; host or cells: Escherichia coli BL21(DE3)
Excerpt: as §1, §2
(§4) Immulon 2 HB 96-well plates (Nunc, Langenselbold, Germany) were coated with Collagen Toolkit or other peptides, fibrillar or monomeric collagen at a saturating concentration (10 μg/ml in 0.01 M acetic acid) overnight at 4 °C. Fibrous bovine type I collagen was a gift from Ethicon Corporation (Somerville, NJ). Monomeric collagen was obtained from Devro (Bathurst, Australia). All further incubations were performed at 24 °C for 1 h unless otherwise stated. The wells were washed three times with adhesion buffer (1 mg/ml BSA in Tris-buffered saline (TBS) containing 0.1% (v/v) Tween-20) between each incubation step. […] Binding curves were fitted using Prism 5.0 software (GraphPad, San Diego), allowing total binding (Bmax) and equilibrium dissociation constant (KD) to be determined. […]

MMP-13 GST-Hpx domain = assay: MMP-13 Toolkit SPBA, isolated GST-Hpx domain; format: binding; conditions: Hpx 83 nM, anti-GST detection, 1 h, 24 °C
Excerpt: as §1, §2, §4

[3] = tested on: Cat domain of MMP-13 (Δ249–451); assay: MMP-13 Toolkit SPBA, isolated Cat domain; format: binding; conditions: data not shown for Toolkit II
Procedure: as §1
Immulon 2 HB 96-well plates (Nunc, Langenselbold, Germany) were coated with Collagen Toolkit or other peptides, fibrillar or monomeric collagen at a saturating concentration (10 μg/ml in 0.01 M acetic acid) overnight at 4 °C. Fibrous bovine type I collagen was a gift from Ethicon Corporation (Somerville, NJ). Monomeric collagen was obtained from Devro (Bathurst, Australia). All further incubations were performed at 24 °C for 1 h unless otherwise stated. The wells were washed three times with adhesion buffer (1 mg/ml BSA in Tris-buffered saline (TBS) containing 0.1% (v/v) Tween-20) between each incubation step. […] Binding curves were fitted using Prism 5.0 software (GraphPad, San Diego), allowing total binding (Bmax) and equilibrium dissociation constant (KD) to be determined.
Proteins were C-terminally biotinylated using an EZ-Link® Micro Sulfo-NHS-Biotinylation Kit (Pierce) according to the manufacturer's instructions. Successful biotinylation was detected via Western blotting using an ultrasensitive Streptavidin-Peroxidase Polymer (Sigma).

proMMP-1 = conditions: ref [7], [31]; cited from earlier work
Excerpt: (§5) How can MMP-13 avoid this constraint? […] The effect is to move the collagen-binding S10′ pocket of M ...

proMMP-3 = conditions: ref [32]; cited from earlier work
Excerpt: as §5

proMMP-9 = conditions: ref [32]; cited from earlier work
Excerpt: as §5

MMP-13 [4] = conditions: cited from earlier work
Excerpt: Collagenolytic MMPs are members of the zinc-dependent peptidase family whose tightly regulated proteolytic activities play a pivotal role in extracellular matrix homeostasis, cell migration and wound healing. […] The Cat and Hpx are thought to cooperate to recognize and bind to the cleavage site, in collagen D-period 4 (D4), three-quarters of the way along the tropocollagen molecule ([6], [7]). Binding of the Hpx is considered to facilitate local relaxation of the helix, allowing the Cat d ... || Comparison of the collagenase cleavage sites of the various fibrillar collagens with the sequences of the MMP-13-binding peptides provides a basis for their relative recognition and subsequent cleavage.

Substance: GCPP(GPPP)2GGPPPG-II-44 guest sequence -P(GPPP)2GGPPPGCPG-amide [linear peptide equivalent to II-44]
- binding of MMP-13 preparations (MMP-13 [1]): negligible binding
- binding (MMP-13 [2]): unable to bind

Substance: GPQG∼LAGQRGIVGLOGQRGER [44J, 21-residue peptide, P4 to P17′, parent of the Ala-scan]
- A450 (adhesion) (MMP-13(E204A); mean of four experiments): ~0.8
- A450 (adhesion) (MMP-13 GST-Hpx domain; coating 10 μg/ml, mean of four experiments): ~0.4
- binding of MMP-13 preparations (MMP-13 [1]): MMP-13(E204A) binding most strongly (A450 ∼0.8), then proMMP-13, then proMMP-13(E204A), then active MMP-13, and lastly the Hpx domain alone

Substance: GFOGLOGPS [44B, peptide containing only the missing triplets, GFOGLOGPS]
- binding of MMP-13 preparations (MMP-13 [1]): supported no binding

Substance: collagen
- binding [3]: able to recognize collagen; also recorded: bound weakly
- binding of MMP-13 preparations (MMP-13 [1]): support firm adhesion of MMP-13 in both its active and pro- forms
- binding of proMMP-1 (proMMP-1): did not bind
- binding of proMMP-3 (proMMP-3): can bind collagen
- binding of proMMP-9 (proMMP-9): can bind collagen

Substance: collagen II: preferred substrate for MMP-13
- relative cleavage rate by MMP-13 (MMP-13 [4]; collagen II compared with collagens I and III, ref [3]): five times faster than collagen I; also recorded: six times faster than collagen III
- cleavage site of MMP-13 (MMP-13 [4]; position within collagen II helical domain, ref [11], [12]): Gly^775–Leu^776; also recorded: Gly^778–Gln^779

Substance: fibrillar type I collagen: Fibrous bovine type I collagen, a gift from Ethicon Corporation
- binding (MMP-13 GST-Hpx domain): bound fibrillar collagen I
- binding [3]: bound fibrillar collagen I, albeit weakly
- Kd (MMP-13 [1]; fibrillar collagen, MMP-13 preparations overall): ~0.04 µM
- A450 (adhesion) (MMP-13 [2]; wild type MMP-13 (active or pro form not stated for the numbers), 83 nM, plates coated 10 μg/ml, mean of four experiments): ≥ 1.0

Substance: monomeric type I collagen: Monomeric collagen obtained from Devro (Bathurst, Australia)
- binding (MMP-13(E204A)): much lower binding
- binding (MMP-13 [2]): much lower binding
